Laboratory results from US6300470A, “Antibiotic cryptdin peptides and methods of their use” (priority 1999, dated 2001).

Tests used:
Assay type in all cases: cell-based
E. coli ML35 = experiment: radial diffusion assay, E. coli ML35; details: 10 mM PIPES
Method: Purified cryptdin peptides were dissolved at 3 to 300 μg/ml in 0.010% acetic acid and activity was examined against E. coli ML35 (ATCC). In the radial diffusion assay, […] peptide solution was transferred into wells formed in plates of 1% agarose buffered with 10 mM PIPES (pH 7.4) and containing 1×10^6 log-phase bacteria grown in trypticase soy broth. After 3 hr at 37° C., the plates were overlayed with 0.8w agarose containing 2× trypticase soy broth and incubated overnight. The antibacterial activities of cryptdin peptides was compared with the activity of rabbit neutrophil defensin NP-1, which was purified from peritoneal exudates as described by Selsted et al. (J. Biol. Chem. 260:4579-4584 (1985), which is incorporated herein by reference). Antibacterial activity was determined by measuring the diameter of learing around each well and plotted as a function of peptide concentration.

[1] = test system: wild type S. typhimurium (ATCC 10428); experiment: agar radial diffusion assay, wild type S. typhimurium; details: HEPES or PIPES buffer; 100 μg/ml or 300 μg/ml
Method: (§1) FIGS. 7.A. and 7.B. depict the antimicrobial activity of mouse cryptain 1 (SEQ ID NO: 6). Samples of purified natural mouse cryptdin 1 (FIG. 7.A.) or rabbit NP-1 (FIG. 7.B.) were dissolved in 0.01% acetic acid and pipetted into wells produced in a 0.6, agarose/0.3% tryptone plate containing 1×10^6 log phase bacterial cells. After incubation at 37° C. for 18 hr, antimicrobial activity was evaluated by measuring the diameters of the clear zones. Closed circles denote wild type S. typhimurium; open circles denote the phoP^- mutant. […]
(§2) Antibacterial activity was measured in an agar radial diffusion assay (Lehrer et al., supra, 1991b) using wild type S. typhimurium (ATCC 10428) or an isogenic phoP mutant of S. typhimurium (strain CS015 phoP102::Tn10d-Cam, Miller et al., supra, 1989). […]
(§3) Purified cryptdin peptides were dissolved at 3 to 300 μg/ml in 0.010% acetic acid and activity was examined against E. coli ML35 (ATCC). […] Antibacterial activity was determined by measuring the diameter of learing around each well and plotted as a function of peptide concentration.

[2] = test system: isogenic phoP mutant of S. typhimurium (strain CS015 phoP102::Tn10d-Cam); experiment: agar radial diffusion assay, phoP mutant S. typhimurium; details: HEPES or PIPES buffer; 100 μg/ml or 300 μg/ml
Method: as §1, §2, §3

S. aureus = experiment: radial diffusion assay, S. aureus growth inhibition; details: higher concentrations (100 μg/ml and 300 μg/ml)
[3] = test system: mutant S. typhimuruim cells; experiment: bactericidal assay, mutant S. typhimurium
Method: (§4) In order to determine whether the effect of the cryptdin peptides against E. coli is bacteriostatic or bacteriocidal, bacterial killing was quantitated as a function of time. Bactericidal asgayg were performed by incubating 1-2×10^6 log-phase bacteria in 10 mM PIPES containing 10 μg peptide/ml. After incubation for 15 or 30 min at 37° C., aliquots were removed, serially diluted and plated on trypticase soy agar. Bactericidal activity was quantitated by counting colonies after overnight incubation at 37° C.
(§5) The bactericidal activity of rat cryptdin 1 also was examined. E. coli ML35 cells, S. areus 502A cells or mutant or wild type S. typhimuruim cells were incubated with various concentrations of rat cryptdin 1 or rabbit NP-1.

[4] = test system: wild type S. typhimuruim cells; experiment: bactericidal assay, wild type S. typhimurium; details: 10 μg/ml
Method: as §4, §5

E. coli ML35 cells = experiment: bactericidal assay in suspension, E. coli
Method: as §4, §5

S. areus 502A cells = experiment: bactericidal assay, S. aureus 502A; details: 10 μg/ml
Method: as §4, §5

| Sequence | activity against E. coli ML35 relative to NP-1 (E. coli ML35; compared at 100 μg/ml and 300 μg/ml) | inhibiting growth of wild type S. typhimurium compared with NP-1 [1] | preventing growth of mutant S. typhimurium compared with NP-1 [2] | inhibiting growth of S. aureus compared with same concentration of NP-1 (S. aureus) | mutant S. typhimurium cells killed ([3]; 10 μg/ml) | killing of mutant S. typhimurium cells, rat cryptdin 1 compared with NP-1 ([3]; various concentrations) | killing of wild type S. typhimurium [4] | E. coli cells killed (E. coli ML35 cells; 10 μg/ml) | killing of E. coli cells, rat cryptdin 1 compared with NP-1 (E. coli ML35 cells; various concentrations) | S. aureus cells killed (S. areus 502A cells) | activity against E. coli ML35 relative to rabbit NP-1 (E. coli ML35; at concentration above 100 μg/ml) |
| --- | --- | --- | --- | --- | --- | --- | --- | --- | --- | --- | --- |
| GLLCYCRKGHCKRGERVRGTCGIRFLYCCPR [cryptdin 4] | at least 50 × | more effective than the same concentration of NP-1 | more effective than the same concentration of NP-1 | more effective than the same concentration of NP-1 | – | – | – | – | – | – | – |
| LKQCHCRKFCRPYEKAEGSCRPGLFIKRKICCIQQWTPG [rat cryptdin 1] | – | – | – | – | greater than 99% | more effective than NP-1 | relatively ineffective | greater than 99% | more effective than NP-1 | about 90% | – |
| LSKKLICYCRIRGCKRRERVFGTCRNLFLTFVFCC [cryptdin 5] | – | more effective than the same concentration of NP-1 | more effective than the same concentration of NP-1 | more effective than the same concentration of NP-1 | – | – | – | – | – | – | approximately 5 × |
